The record followed here is publication PMC11596355, “Virtual Screening Approaches to Identify Promising Multitarget-Directed Ligands for the Treatment of Autism Spectrum Disorder” (Molecules, 2024).

One assay addresses T1, human D2sR (D2shortR) (Homo sapiens, UniProt P14416).
T1 construct: gene DRD2; full-length short isoform stably expressed in CHO-K1 cells, membrane fraction
Kind of assay: [3H]spiperone displacement, CHO-K1 membranes. Type of assay: binding. As to conditions: read-out: D2sR pKi ± SEM ^b (converted). The source says: [3H]spiperone displacement, CHO-K1 membranes on human D2sR (D2shortR)

A further assay concerns the target T2, human D3R (Homo sapiens, UniProt P35462).
T2 construct: gene DRD3; full-length, stably expressed in CHO-K1 cells, membrane fraction
As to the kind of experiment: [3H]spiperone displacement, CHO-K1 membranes. It counts as binding. As to conditions: read-out: D3R pKi ± SEM ^b (converted). The source says: [3H]spiperone displacement, CHO-K1 membranes on human D3R

T1 sequence (P14416 1-414 isoform P14416-2): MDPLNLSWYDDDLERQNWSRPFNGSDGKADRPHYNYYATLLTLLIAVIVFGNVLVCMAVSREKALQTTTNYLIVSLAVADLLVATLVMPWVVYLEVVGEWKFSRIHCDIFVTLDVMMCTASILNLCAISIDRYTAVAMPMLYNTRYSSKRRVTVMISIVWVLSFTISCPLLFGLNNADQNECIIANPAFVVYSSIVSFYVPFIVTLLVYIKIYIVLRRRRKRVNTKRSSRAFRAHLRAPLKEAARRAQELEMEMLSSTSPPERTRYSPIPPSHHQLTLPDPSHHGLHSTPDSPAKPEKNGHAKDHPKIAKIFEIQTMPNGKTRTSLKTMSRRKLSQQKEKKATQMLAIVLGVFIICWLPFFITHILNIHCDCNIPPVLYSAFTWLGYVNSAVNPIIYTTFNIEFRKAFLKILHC
T2 sequence (P35462 whole entry): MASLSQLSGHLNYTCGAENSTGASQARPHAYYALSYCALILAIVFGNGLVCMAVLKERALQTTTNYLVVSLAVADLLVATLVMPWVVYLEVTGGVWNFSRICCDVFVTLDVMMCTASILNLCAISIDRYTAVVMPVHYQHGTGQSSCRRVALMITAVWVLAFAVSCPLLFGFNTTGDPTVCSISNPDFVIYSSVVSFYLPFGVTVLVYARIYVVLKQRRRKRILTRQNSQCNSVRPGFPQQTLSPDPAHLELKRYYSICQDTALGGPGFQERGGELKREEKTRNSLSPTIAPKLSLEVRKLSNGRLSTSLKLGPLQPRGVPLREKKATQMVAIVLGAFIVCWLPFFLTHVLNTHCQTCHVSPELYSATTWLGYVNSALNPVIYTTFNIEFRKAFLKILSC

`N=C(N)N(CCCCN1CCN(CCCCN(Cc2ccc(C(F)(F)F)cc2)C(=N)N)CC1)Cc1ccc(C(F)(F)F)cc1` [compound 30]: the Ki was 0.759 µM on human D2sR (D2shortR) and 14.5 µM at human D3R.
